Legend:
Type in all cases: cell-based
TRPV2 = biological target: T1, TRPV2 (Homo sapiens, UniProt Q9Y5S1); assay: Bulk calcium assay (Fluo-4) in HEK cells overexpressing TRPV2
T1 construct: host or cells: HEK TRex293
T1 sequence (Q9Y5S1 1-764): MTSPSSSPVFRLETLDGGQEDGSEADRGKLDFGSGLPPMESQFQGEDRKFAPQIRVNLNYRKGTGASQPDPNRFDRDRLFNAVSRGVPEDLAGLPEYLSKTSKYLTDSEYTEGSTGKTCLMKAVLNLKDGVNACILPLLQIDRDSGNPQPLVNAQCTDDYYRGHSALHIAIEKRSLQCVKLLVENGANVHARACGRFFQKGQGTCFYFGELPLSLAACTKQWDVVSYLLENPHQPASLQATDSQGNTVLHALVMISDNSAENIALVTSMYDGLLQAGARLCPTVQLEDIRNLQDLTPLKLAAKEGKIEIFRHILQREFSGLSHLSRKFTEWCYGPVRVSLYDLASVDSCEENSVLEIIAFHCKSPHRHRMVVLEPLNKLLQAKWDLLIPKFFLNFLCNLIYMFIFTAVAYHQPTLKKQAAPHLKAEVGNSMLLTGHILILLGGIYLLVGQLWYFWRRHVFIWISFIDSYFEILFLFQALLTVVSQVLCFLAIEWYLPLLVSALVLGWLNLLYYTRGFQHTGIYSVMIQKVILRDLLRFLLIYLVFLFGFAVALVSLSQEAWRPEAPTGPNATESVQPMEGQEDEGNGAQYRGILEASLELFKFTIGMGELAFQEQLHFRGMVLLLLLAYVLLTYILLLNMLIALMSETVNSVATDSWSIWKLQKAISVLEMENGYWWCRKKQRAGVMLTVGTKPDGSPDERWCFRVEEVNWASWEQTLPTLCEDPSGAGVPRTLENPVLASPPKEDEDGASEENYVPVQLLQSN
Description: (§1) HEK TRexTRPV1 were cultured in DMEM, 10% Fetal Bovine Serum, 2 mM Lglutamine, 10 μg/ml Blasticidin (Calbiochem, San Diego Calif.), 400 μg/ml Zeocin (InvivoGen, San Diego Calif.), where indicated transgene expression was induced using 1 μg/ml Tetracycline for 16-24 hrs. Unless otherwise indicated, basal expression of TRPV1 without induction was sufficient for these studies, and comparisons were made to untransfected HEK where needed. HEKTRex293 over-expressing human TRPV2, human TRPA1 and human TRPM8 were obtained from SB Drug Discovery (Glasgow, Scotland) and cultured as described above. The cannabinoids and terpenes were assayed in HEK cells that have been transfected with the TRPV1 ion channel protein. These cells are called HEK293-V1 cells.
(§2) Cells were washed and incubated with 0.2 micromolar Fluo-4 for 30 minutes at 37° C. in a standard modified Ringer's solution of the following composition (in mM): NaCl 145, KCl 2.8, CsCl 10, CaCl2 10, MgCl2 2, glucose 10, Hepes·NaOH 10, pH 7.4, 330 mOsm. Cells were transferred to 96-well plates at 50,000 cells/well and stimulated as indicated. Calcium signals were acquired using a Flexstation 3 (Molecular Devices, Sunnydale, USA). Data was analyzed using SoftMax® Pro 5 (Molecular Devices). Where indicated, nomically calcium-free external conditions were achieved by the preparation of 0 mM CaCl2 Ringer solution containing 1 mM EGTA.
(§3) Calcium responses mediated by TRPA1, TRPM8, TRPV2, and TRPV1 were tested by calcium assay in the cell culture system. Cells were washed and incubated with 0.2 μM fluo-4 acetoxymethyl ester (“Fluo-4”) for 30 minutes at 37° C. in a standard modified Ringer's solution of the following composition (in mM): NaCl 145, KCl 2.8, CsCl 10, CaCl2 10, MgCl2 2, glucose 10, Hepes·NaOH 10, pH 7.4, 330 mOsm. Cells were transferred to 96-well plates at 50,000 cells/well and stimulated with 10 μM myrcene diluted in DMSO. Vehicle (DMSO) was used as a negative control. Vehicle traces were subtracted from the myrcene traces for each cell line.
(§4) The potential for different cannabinoids to target specific TRP channels, or to co-target more than one channel type, are of potential therapeutic options for the treatment and management of pain. Comparison of the impacts of a variety of cannabinoid on overexpression systems for TRPV2, TRPM8, and TRPA1 were performed in a side-by-side fashion, under bulk calcium assays where the measurements with each trace representing averaged triplicates of 100,000 cells per sample. As shown in FIGS. 41-43 and summarized in Table 3, there are clear differences in responsiveness between cannabinoids at a single channel type than between channel types to a given cannabinoid.

TRPM8 = biological target: T2, TRPM8 (Homo sapiens, UniProt Q7Z2W7); assay: Bulk calcium assay (Fluo-4) in HEK cells overexpressing TRPM8
T2 construct: host or cells: HEK TRex293
Description: as §1, §2, §3, §4

TRPA1 = biological target: T3, TRPA1 (Homo sapiens, UniProt O75762); assay: Bulk calcium assay (Fluo-4) in HEK cells overexpressing TRPA1
T3 construct: host or cells: HEK TRex293
Description: as §1, §2, §3, §4

T3 sequence (O75762 whole entry): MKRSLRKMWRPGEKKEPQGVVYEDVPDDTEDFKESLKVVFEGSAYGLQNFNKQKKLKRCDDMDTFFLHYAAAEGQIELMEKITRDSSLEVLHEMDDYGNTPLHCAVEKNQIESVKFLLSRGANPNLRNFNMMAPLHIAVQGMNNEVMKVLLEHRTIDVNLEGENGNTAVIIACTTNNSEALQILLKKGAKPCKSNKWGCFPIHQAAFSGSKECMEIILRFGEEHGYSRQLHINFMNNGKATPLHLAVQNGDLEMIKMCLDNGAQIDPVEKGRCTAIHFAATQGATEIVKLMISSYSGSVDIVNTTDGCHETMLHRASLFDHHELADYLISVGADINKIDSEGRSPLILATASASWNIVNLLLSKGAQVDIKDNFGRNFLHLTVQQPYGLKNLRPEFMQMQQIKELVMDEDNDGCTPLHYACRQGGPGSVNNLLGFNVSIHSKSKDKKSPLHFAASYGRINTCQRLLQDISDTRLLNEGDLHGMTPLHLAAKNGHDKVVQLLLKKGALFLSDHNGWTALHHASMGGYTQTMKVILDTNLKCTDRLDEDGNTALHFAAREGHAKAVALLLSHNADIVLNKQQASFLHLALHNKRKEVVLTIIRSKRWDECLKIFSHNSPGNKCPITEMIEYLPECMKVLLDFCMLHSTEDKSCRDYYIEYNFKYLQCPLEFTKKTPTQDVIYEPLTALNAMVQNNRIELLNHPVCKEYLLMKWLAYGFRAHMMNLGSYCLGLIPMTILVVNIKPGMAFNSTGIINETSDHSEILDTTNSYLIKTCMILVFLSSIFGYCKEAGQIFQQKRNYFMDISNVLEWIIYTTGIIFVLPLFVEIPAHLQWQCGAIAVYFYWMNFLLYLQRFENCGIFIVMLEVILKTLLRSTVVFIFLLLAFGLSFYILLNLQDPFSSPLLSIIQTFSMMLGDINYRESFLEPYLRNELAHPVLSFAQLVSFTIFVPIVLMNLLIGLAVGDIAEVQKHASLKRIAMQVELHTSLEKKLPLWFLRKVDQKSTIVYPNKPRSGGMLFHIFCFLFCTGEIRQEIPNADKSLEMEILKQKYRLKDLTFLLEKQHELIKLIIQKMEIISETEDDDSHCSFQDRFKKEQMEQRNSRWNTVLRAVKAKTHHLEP
T2 sequence (Q7Z2W7 whole entry): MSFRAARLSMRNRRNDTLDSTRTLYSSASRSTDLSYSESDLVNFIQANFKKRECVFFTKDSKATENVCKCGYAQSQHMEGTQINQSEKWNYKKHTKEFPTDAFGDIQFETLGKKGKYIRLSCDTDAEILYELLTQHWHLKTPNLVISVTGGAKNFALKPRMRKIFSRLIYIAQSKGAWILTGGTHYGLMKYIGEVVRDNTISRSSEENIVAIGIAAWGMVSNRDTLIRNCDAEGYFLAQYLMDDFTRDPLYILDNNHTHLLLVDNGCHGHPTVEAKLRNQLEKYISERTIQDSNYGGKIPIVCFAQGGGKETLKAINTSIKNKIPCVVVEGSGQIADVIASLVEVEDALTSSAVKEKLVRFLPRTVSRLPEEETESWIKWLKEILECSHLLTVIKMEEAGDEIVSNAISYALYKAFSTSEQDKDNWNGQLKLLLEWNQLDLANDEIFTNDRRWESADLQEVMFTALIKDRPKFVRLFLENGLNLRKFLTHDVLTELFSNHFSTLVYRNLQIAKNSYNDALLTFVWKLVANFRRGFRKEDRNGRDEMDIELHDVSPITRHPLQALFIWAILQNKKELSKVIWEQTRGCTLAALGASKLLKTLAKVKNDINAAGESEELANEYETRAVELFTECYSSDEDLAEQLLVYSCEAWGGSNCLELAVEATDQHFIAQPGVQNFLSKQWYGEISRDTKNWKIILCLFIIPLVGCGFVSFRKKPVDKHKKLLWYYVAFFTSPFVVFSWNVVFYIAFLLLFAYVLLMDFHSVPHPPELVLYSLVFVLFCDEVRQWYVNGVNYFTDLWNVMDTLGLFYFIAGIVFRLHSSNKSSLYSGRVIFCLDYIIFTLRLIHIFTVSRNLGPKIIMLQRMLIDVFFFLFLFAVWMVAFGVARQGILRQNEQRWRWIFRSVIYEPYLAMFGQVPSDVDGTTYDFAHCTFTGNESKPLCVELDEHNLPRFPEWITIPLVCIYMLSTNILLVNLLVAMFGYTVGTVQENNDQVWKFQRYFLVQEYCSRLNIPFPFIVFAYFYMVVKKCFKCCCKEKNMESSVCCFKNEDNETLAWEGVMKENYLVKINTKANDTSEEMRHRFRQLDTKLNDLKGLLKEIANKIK

Compound | mean maximal Ca^2+ signal RFU achieved 0-180 s (SD), TRPV1 (TRPV2) | mean maximal Ca^2+ signal RFU achieved 0-180 s (SD), TRM8 (TRPM8) | mean maximal Ca^2+ signal RFU achieved 0-180 s (SD), TRPA1 (TRPA1)
C=C(C)[C@@H]1CCC(C)=C[C@H]1c1c(O)cc(CCCCC)cc1O [CBD, Cannabidiol] | 12.53 (0.28) RFU | 1.12 (0.02) RFU | 1.28 (0.03) RFU
C=C(C)[C@@H]1CCC(C)=C[C@H]1c1c(O)cc(CCC)cc1O [CBDV, Cannabidivarin] | 13.07 (0.03) RFU | 3.89 (0.05) RFU | 16.17 (2.68) RFU
CCCCCc1cc(O)c(C/C=C(\C)CCC=C(C)C)c(O)c1 [CBG, Cannabigerol] | 2.19 (0.62) RFU | 2.25 (0.46) RFU | 10.22 (1.29) RFU
CCCCCc1cc(O)c2c(c1)OC(C)(C)c1ccc(C)cc1-2 [CBN, Cannabinol] | 4.03 (0.64) RFU | 0.09 (0.01) RFU | 10.97 (0.4) RFU
